Source: patent US20250049036A1 (priority 2021, published 2025)

What was measured:
[1] = tested on: Colletotrichum capsici; experiment: Colletotrichum capsici (anthracnose) mycelial radial growth on potato dextrose agar; type: cell-based; conditions: Colletotrichum truncatum, 168 h, 25° C., seven days, read-out: control compared to the untreated check
Method in brief: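 Compounds in 0.3% DMSO were mixed into potato dextrose agar, and each plate was seeded with a 5 mm mycelial disc from an actively growing culture. Plates were incubated at 25° C and 60% relative humidity for seven days. Radial growth was compared with untreated control.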

[2] = tested on: Alternaria solani; experiment: Alternaria solani test in tomato, preventive, greenhouse; type: in vivo; conditions: preventive spray on tomato, inoculated one day after treatment, read-out: control (efficacy, disease severity) compared to the untreated check
Protocol: The respective compound was dissolved in 2% dimethyl sulfoxide/acetone and then mixed with water containing an emulsifier to the calibrated spray volume of 30 mL. Each spray solution was poured into a spray bottle for further application.
To test the preventive activity of a compound, healthy young tomato plants, raised in the greenhouse, were sprayed with the active compound preparation at the stated application rate inside the spray cabinets using hollow cone nozzles. One day after treatment, the plants were inoculated with a spore suspension containing 0.24×10^6 Alternaria solani inoculum. The inoculated plants were then kept in a greenhouse chamber at 22-24° C. temperature and 90-95% relative humidity for disease expression.
A visual assessment of the compound's performance was carried out by rating the disease severity (0 100% scale) on treated plants 3, 7, 10 and 15 days after application. Efficacy (% control) of the compound was calculated by comparing the disease rating in the treatment with the one of the untreated control. The treated plants were also assessed for plant damage by recording symptoms like necrosis, chlorosis and stunting.

[3] = tested on: Phytophthora infestans; experiment: whole plant or invertebrate; type: in vivo, Phytophthora infestans on tomato; conditions: in Solanum lycopersicum, read-out: control (efficacy, disease severity) compared to the untreated check
[4] = tested on: Pyricularia oryzae; experiment: microbe, parasite or virus in culture; type: cell-based; conditions: 168 h, read-out: control compared to the untreated check
[5] = tested on: Botrytis cinerea; experiment: Botrytis cinerea test on tomato, preventive, greenhouse; type: in vivo; conditions: preventive spray on bean/chili plants (heading: tomato), inoculated one day after treatment, read-out: control (efficacy, disease severity) compared to the untreated check
[6] = tested on: Phakopsora pachyrhizi; experiment: Phakopsora pachyrhizi test on soybean, preventive, greenhouse; type: in vivo; conditions: preventive spray on soybean, inoculated one day after treatment, read-out: control (efficacy, disease severity) compared to the untreated check
Method in brief: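 Greenhouse-grown young soybean plants were sprayed with compound (2% DMSO/acetone, emulsifier in water) at the stated rate. One day later they were inoculated with 2×10^5 P. pachyrhizi inoculum and held at 22-24 °C, 80-90% relative humidity for disease development.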

[7] = tested on: Phytophthora infestans; experiment: microbe, parasite or virus in culture; type: cell-based; conditions: 168 h, read-out: control compared to the untreated check
[8] = tested on: Venturia Inequalis; experiment: Venturia inequalis (VENTIN) spore growth inhibition in liquid medium, 96-well microtiter plate, OD 600; type: cell-based; conditions: spore suspension in PDB liquid medium, 18° C., 15-18 days, OD at 600, read-out: control compared to the untreated check
Method in brief: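 Venturia inequalis spores (10^5 spores/ml suspension) were grown in potato dextrose broth with test compounds dissolved in DMSO, mixing equal volumes of compound solution and spore suspension. Plates were incubated at 18 °C for 15–18 days. Growth was read as OD600 and converted to percent inhibition.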

[9] = tested on: Parastagonospora nodorum; experiment: Parastagonospora nodorum (PARANO) spore growth inhibition in liquid medium, 96-well microtiter plate, OD 600; type: cell-based; conditions: spore suspension in PDB liquid medium, 18° C., 5-6 days, OD at 600, read-out: control compared to the untreated check
Method in brief: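 Read-out is percent growth inhibition from OD at 600 after 5-6 days at 18° C. Compounds, dissolved in DMSO, were diluted in potato dextrose broth and combined in equal volume with a 10^5 spores/ml suspension of PARANO.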

[10] = tested on: Botrytis cinerea; experiment: Botrytis cinerea liq. (BOTRCI) spore growth inhibition in liquid medium, 96-well microtiter plate, OD 405 nm; type: cell-based; conditions: spore suspension in YBA liquid medium, 22° C., 5-6 days, OD at 405 nm, read-out: control compared to the untreated check
Method in brief: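 Spore suspension of B. cinerea (10^4 spores/ml) in YBA liquid medium mixed 1:1 with compound diluted from DMSO. Incubated at 22° C. for 5-6 days. Growth read as OD 405 nm; percent inhibition derived from treatment, untreated-control and blank readings.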

[11] = tested on: Botrytis cinerea; experiment: Botrytis cinerea (gray mold) mycelial radial growth on potato dextrose agar; type: cell-based; conditions: 168 h, 22° C., seven days, read-out: control compared to the untreated check
Method in brief: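 Compounds in 0.3% DMSO were mixed into potato dextrose agar, and plates were seeded with 5 mm mycelial discs from actively growing virulent culture. After seven days at 22 °C and 90% relative humidity, radial growth was measured relative to untreated control.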

CC(c1ccccc1F)C(C)(C)NC(=O)c1cnc2c(ccn2C)c1 (stereo not drawn) [Compound 3, N-(3-(2-fluorophenyl)-2-methylbutan-2-yl)-1-methyl-1H-pyrrolo[2,3-b]pyridine-5-carboxamide]
≥ 70%: inhibition of growth at 300 ppm [1] | pest or weed control at 500 ppm [2] | pest or weed control at 500 ppm [3] | inhibition of growth at 300 ppm [4]

Cn1ccc2cc(C(=O)NC(C)(C)Cc3ccc(OC(F)(F)F)cc3)cnc21 [Compound 19, 1-methyl-N-(2-methyl-1-(4-(trifluoromethoxy)phenyl)propan-2-yl)-1H-pyrrolo[2,3-b]pyridine-5-carboxamide]
≥ 70%: pest or weed control at 500 ppm [2] | pest or weed control at 500 ppm [5] | pest or weed control at 500 ppm [6]

CC(C)(Cc1ccccc1)NC(=O)c1cnc2ccsc2c1 [Compound 30, N-(2-methyl-1-phenylpropan-2-yl)thieno[3,2-b] pyridine-6-carboxamide]
≥ 70%: pest or weed control at 500 ppm [2] | inhibition of growth at 300 ppm [7] | pest or weed control at 500 ppm [5] | inhibition of growth at 300 ppm [4]

CC(C)CC(C)(Cc1ccccc1)NC(=O)c1cnc2cc[nH]c2c1 (stereo not drawn) [Compound 73, N-(2,4-dimethyl-1-phenylpentan-2-yl)-1H-pyrrolo[3,2-b]pyridine-6-carboxamide]
≥ 70%: inhibition of growth at 300 ppm [8] | inhibition of growth at 300 ppm [9] | inhibition of growth at 300 ppm [1] | pest or weed control at 500 ppm [2] | inhibition of growth at 300 ppm [7] | pest or weed control at 500 ppm [5] | pest or weed control at 500 ppm [3] | inhibition of growth at 300 ppm [10] | inhibition of growth at 300 ppm [11]

CC(Cc1ccccc1)C(C)(C)NC(=O)c1cnc2c(ccn2C)c1 (stereo not drawn) [Compound 80, N-(2,3-dimethyl-4-phenylbutan-2-yl)-1-methyl-1H-pyrrolo[2,3-b]pyridine-5-carboxamide]
≥ 70%: inhibition of growth at 300 ppm [8] | inhibition of growth at 300 ppm [9] | inhibition of growth at 300 ppm [1] | pest or weed control at 500 ppm [2] | pest or weed control at 500 ppm [3]

CC(C)(NC(=O)c1cnc2ccsc2c1)C(O)c1ccccc1 (stereo not drawn) [Compound 118, N-(1-hydroxy-2-methyl-1-phenylpropan-2-yl)thieno[3,2-b] pyridine-6-carboxamide]
≥ 70%: inhibition of growth at 300 ppm [9] | pest or weed control at 500 ppm [2] | inhibition of growth at 300 ppm [10] | inhibition of growth at 300 ppm [11]

CCC(O)(CC)C(NC(=O)c1cnc2ccsc2c1)c1ccc(F)cc1 (stereo not drawn) [Compound 132, N-(2-ethyl-1-(4-fluorophenyl)-2-hydroxybutyl)thieno [3,2-b]pyridine-6-carboxamide]
≥ 70%: inhibition of growth at 300 ppm [8] | pest or weed control at 500 ppm [2] | pest or weed control at 500 ppm [6]

Cc1ccccc1C(=O)OCC(C)(C)NC(=O)c1cnc2c(c1)CCCC2 [Compound 151, 2-methyl-2-(5,6,7,8-tetrahydroquinoline-3-carboxamido)propyl 2-methylbenzoate]
≥ 70%: inhibition of growth at 300 ppm [9] | pest or weed control at 500 ppm [2] | pest or weed control at 500 ppm [5] | pest or weed control at 500 ppm [6]

Cn1cc(Cl)c2cc(C(=O)NC(C)(C)COC(=O)c3cccc(F)c3)cnc21 [Compound 153, 2-(3-chloro-1-methyl-1H-pyrrolo[2,3-b]pyridine-5-carboxamido)-2-methylpropyl 3-fluorobenzoate]
≥ 70%: inhibition of growth at 300 ppm [9] | pest or weed control at 500 ppm [2] | pest or weed control at 500 ppm [5]
